Experimental data from patent US11312712B2, “Azabenzimidazoles and their use as AMPA receptor modulators” (Janssen Pharmaceutica NV, priority 2015, dated 2022).

molecular target: GluA1o-γ8 (GRIA1o-CACNG8 fusion construct) (Homo sapiens (Human), UniProt P42261+Q8WXS5); assay: Calcium flux assay (FLIPR), inhibition of TARP γ8 dependent AMPA receptor activity; assay type: cell-based; details: GluA1o-γ8 (GRIA1o-CACNG8 fusion) in HEK293 cells, calcium flux after 15 μM glutamate
Outline: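 Glutamate (15 μM) was added to a stable HEK293 line carrying the GluA1o–γ8 fusion, which had been preincubated with compound and calcium dye in HEPES buffer, pH 7.4. Normalized FLIPR fluorescence (no compound vs 10 μM CP465022) was fitted with four parameters; pIC50 is the midpoint's negative log.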

Sequence of GluA1o-γ8 (GRIA1o-CACNG8 fusion construct) (P42261 other isoform, or with tags, fused parts or gaps): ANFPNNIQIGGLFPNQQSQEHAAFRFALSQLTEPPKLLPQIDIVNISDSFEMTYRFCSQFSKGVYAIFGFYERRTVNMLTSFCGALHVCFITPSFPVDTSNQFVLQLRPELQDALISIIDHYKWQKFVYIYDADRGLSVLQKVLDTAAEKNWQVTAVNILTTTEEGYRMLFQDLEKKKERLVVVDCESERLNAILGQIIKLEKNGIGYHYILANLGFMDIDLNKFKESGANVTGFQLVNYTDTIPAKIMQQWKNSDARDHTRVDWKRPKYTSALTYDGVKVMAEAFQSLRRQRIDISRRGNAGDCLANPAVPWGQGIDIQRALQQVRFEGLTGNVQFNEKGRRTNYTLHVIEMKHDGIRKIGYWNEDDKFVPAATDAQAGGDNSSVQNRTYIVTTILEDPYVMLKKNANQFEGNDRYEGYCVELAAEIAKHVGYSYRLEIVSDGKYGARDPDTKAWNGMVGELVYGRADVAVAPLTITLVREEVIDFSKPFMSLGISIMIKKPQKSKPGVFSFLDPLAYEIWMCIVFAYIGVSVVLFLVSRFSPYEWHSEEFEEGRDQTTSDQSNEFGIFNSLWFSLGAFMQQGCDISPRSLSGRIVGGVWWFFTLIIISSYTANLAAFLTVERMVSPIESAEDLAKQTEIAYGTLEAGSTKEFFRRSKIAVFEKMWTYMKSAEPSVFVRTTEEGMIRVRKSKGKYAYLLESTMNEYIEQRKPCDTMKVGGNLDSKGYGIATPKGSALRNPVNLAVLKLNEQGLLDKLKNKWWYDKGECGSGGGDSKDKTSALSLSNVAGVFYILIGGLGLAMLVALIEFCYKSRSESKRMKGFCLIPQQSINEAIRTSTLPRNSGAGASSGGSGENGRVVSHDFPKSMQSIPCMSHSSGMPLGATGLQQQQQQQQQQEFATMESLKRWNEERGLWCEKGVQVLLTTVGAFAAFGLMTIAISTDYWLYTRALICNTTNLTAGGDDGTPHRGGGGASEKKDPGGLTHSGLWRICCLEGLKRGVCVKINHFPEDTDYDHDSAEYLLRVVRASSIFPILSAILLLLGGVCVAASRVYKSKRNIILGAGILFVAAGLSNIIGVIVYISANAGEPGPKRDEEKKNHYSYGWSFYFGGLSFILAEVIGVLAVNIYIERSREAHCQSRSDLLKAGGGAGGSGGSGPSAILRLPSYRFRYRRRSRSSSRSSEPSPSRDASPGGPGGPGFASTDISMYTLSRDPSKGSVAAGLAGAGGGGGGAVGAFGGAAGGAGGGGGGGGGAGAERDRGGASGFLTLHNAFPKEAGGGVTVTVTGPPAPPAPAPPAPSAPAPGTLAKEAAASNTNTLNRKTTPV

Compound	IC50
O=C(Nc1ccccc1)c1nc2ccc(C(F)(F)F)nc2n1-c1ccc2[nH]ncc2c1 [Example 85, 3-(1H-Indazol-5-yl)-N-phenyl-5-(trifluoromethyl)imidazo[4,5-b]pyridine-2-carboxamide]	79.4 nM
Fc1ccc(-c2nc3ccc(C4CC4)nc3n2-c2ccc3[nH]ncc3c2)cc1 [Example 86, 5-Cyclopropyl-2-(4-fluorophenyl)-3-(1H-indazol-5-yl)imidazo[4,5-b]pyridine]	0.794 nM
Cc1ccc2nc(C3CC3)n(-c3ccc4c(c3)CC(=O)N4)c2n1 [Example 87, 5-(2-Cyclopropyl-5-methyl-imidazo[4,5-b]pyridin-3-yl)indolin-2-one]	79.4 nM
O=C1Cc2cc(-n3c(C(F)(F)F)nc4ccc(C(F)(F)F)nc43)ccc2N1 [Example 88, 5-[2,5-Bis(trifluoromethyl)imidazo[4,5-b]pyridin-3-yl]indolin-2-one]	1.58 nM
FC(F)(F)c1ccc2nc(-c3cccs3)n(-c3ccc4[nH]ncc4c3)c2n1 [Example 91, 3-(1H-Indazol-5-yl)-2-(2-thienyl)-5-(trifluoromethyl)imidazo[4,5-b]pyridine]	3.98 nM
FC(F)(F)c1ccc2nc(-c3ccco3)n(-c3ccc4[nH]ncc4c3)c2n1 [Example 92, 2-(2-Furyl)-3-(1H-indazol-5-yl)-5-(trifluoromethyl)imidazo[4,5-b]pyridine]	5.01 nM
CC(F)(F)c1nc2ccc(C(F)(F)F)nc2n1-c1ccc2c(c1)CC(=O)N2 [Example 93, 5-[2-(1,1-Difluoroethyl)-5-(trifluoromethyl)imidazo[4,5-b]pyridin-3-yl]indolin-2-one]	7.94 nM
O=C1Cc2cc(-n3c(C(F)F)nc4ccc(C(F)(F)F)nc43)ccc2N1 [Example 94, 5-[2-(Difluoromethyl)-5-(trifluoromethyl)imidazo[4,5-b]pyridin-3-yl]indolin-2-one]	50.1 nM
O=C1Cc2cc(-n3c(C4CC4)nc4ccc(Cl)nc43)ccc2N1 [Example 95, 5-(5-Chloro-2-cyclopropyl-imidazo[4,5-b]pyridin-3-yl)indolin-2-one]	39.8 nM
CC(C)(C)Cc1nc2ccc(C(F)(F)F)nc2n1-c1ccc2c(c1)CC(=O)N2 [Example 97, 5-[2-(2,2-Dimethylpropyl)-5-(trifluoromethyl)imidazo[4,5-b]pyridin-3-yl]indolin-2-one]	251 nM
CCc1nc2ccc(C(F)(F)F)nc2n1-c1ccc2c(c1)CC(=O)N2 [Example 99, 5-[2-Ethyl-5-(trifluoromethyl)imidazo[4,5-b]pyridin-3-yl]indolin-2-one]	12.6 nM
CC(C)Cc1nc2ccc(C(F)(F)F)nc2n1-c1ccc2[nH]ncc2c1 [Example 101, 3-(1H-Indazol-5-yl)-2-isobutyl-5-(trifluoromethyl)imidazo[4,5-b]pyridine]	25.1 nM
FC(F)(F)c1ccc2nc(C3CCC3)n(-c3ccc4[nH]ncc4c3)c2n1 [Example 103, 2-Cyclobutyl-3-(1H-indazol-5-yl)-5-(trifluoromethyl)imidazo[4,5-b]pyridine]	1.58 nM
FC(F)(F)c1ccc2nc(C3CCCC3)n(-c3ccc4[nH]ncc4c3)c2n1 [Example 104, 2-Cyclopentyl-3-(1H-indazol-5-yl)-5-(trifluoromethyl)imidazo[4,5-b]pyridine]	5.01 nM
O=c1[nH]c2ccc(-n3c(C4CC4)nc4ccc(C(F)(F)F)nc43)cc2[nH]1 [Example 106, 5-[2-Cyclopropyl-5-(trifluoromethyl)imidazo[4,5-b]pyridin-3-yl]-1,3-dihydrobenzimidazol-2-one]	2.51 nM
O=c1[nH]c2ccc(-n3c(C4CC4)nc4ccc(C(F)(F)F)nc43)cc2o1 [Example 107, 6-[2-Cyclopropyl-5-(trifluoromethyl)imidazo[4,5-b]pyridin-3-yl]-3H-1,3-benzoxazol-2-one]	15.8 nM
Fc1ccc(-c2nc3ccc(C(F)(F)F)nc3n2-c2ccc3[nH]ncc3c2)cc1 [Example 110, 2-(4-Fluorophenyl)-3-(1H-indazol-5-yl)-5-(trifluoromethyl)imidazo[4,5-b]pyridine]	0.316 nM
O=c1[nH]c2ccc(-n3c(-c4ccccc4)nc4ccc(O)nc43)cc2s1 [Example 111, 6-(5-Hydroxy-2-phenyl-imidazo[4,5-b]pyridin-3-yl)-3H-1,3-benzothiazol-2-one]	15.8 nM
Fc1ccc(-c2nc3cccnc3n2-c2cnc3[nH]ncc3c2)cc1 [Example 112, 2-(4-Fluorophenyl)-3-(1H-pyrazolo[3,4-b]pyridin-5-yl)imidazo[4,5-b]pyridine]	398 nM
CC(C)(C)c1ccc2nc(-c3ccc(F)cc3)n(-c3ccc4[nH]ncc4c3)c2n1 [Example 118, 5-tert-Butyl-2-(4-fluorophenyl)-3-(1H-indazol-5-yl)imidazo[4,5-b]pyridine]	0.158 nM
CC(C)c1ccc2nc(C3CCC3)n(-c3ccc4[nH]ncc4c3)c2n1 [Example 119, 2-Cyclobutyl-3-(1H-indazol-5-yl)-5-isopropyl-imidazo[4,5-b]pyridine]	0.0316 nM
CC(C)c1ccc2nc(-c3ccc(F)cc3)n(-c3ccc4[nH]ncc4c3)c2n1 [Example 120, 2-(4-Fluorophenyl)-3-(1H-indazol-5-yl)-5-isopropyl-imidazo[4,5-b]pyridine]	0.0501 nM
Cc1cc(-c2nc3ccc(C(F)(F)F)nc3n2-c2ccc3[nH]ncc3c2)ccc1F [Example 121, 2-(4-Fluoro-3-methyl-phenyl)-3-(1H-indazol-5-yl)-5-(trifluoromethyl)imidazo[4,5-b]pyridine]	0.501 nM
Cc1cccc(-c2nc3ccc(C(F)(F)F)nc3n2-c2ccc3[nH]ncc3c2)c1 [Example 122, 3-(1H-Indazol-5-yl)-2-(m-tolyl)-5-(trifluoromethyl)imidazo[4,5-b]pyridine]	0.316 nM
Cc1ccc(-c2nc3ccc(C(F)(F)F)nc3n2-c2ccc3[nH]ncc3c2)cc1 [Example 123, 3-(1H-Indazol-5-yl)-2-(p-tolyl)-5-(trifluoromethyl)imidazo[4,5-b]pyridine]	3.98 nM
FC(F)(F)c1ccc2nc(-c3ccncc3)n(-c3ccc4[nH]ncc4c3)c2n1 [Example 124, 3-(1H-Indazol-5-yl)-2-(4-pyridyl)-5-(trifluoromethyl)imidazo[4,5-b]pyridine]	12.6 nM
CN(C)C(=O)c1nc2ccc(C(F)(F)F)nc2n1-c1ccc2[nH]ncc2c1 [Example 126, 3-(1H-Indazol-5-yl)-N,N-dimethyl-5-(trifluoromethyl)imidazo[4,5-b]pyridine-2-carboxamide]	794 nM
O=C(NC1CC1)c1nc2ccc(C(F)(F)F)nc2n1-c1ccc2[nH]ncc2c1 [Example 128, N-Cyclopropyl-3-(1H-indazol-5-yl)-5-(trifluoromethyl)imidazo[4,5-b]pyridine-2-carboxamide]	501 nM

Further lines, results first:

IC50	Compound
1.26 nM	FC(F)(F)c1ccc2nc(C(F)(F)F)n(-c3ccc4[nH]ncc4c3)c2n1 [Example 89, 3-(1H-Indazol-5-yl)-2,5-bis(trifluoromethyl)imidazo[4,5-b]pyridine]
3.16 nM	FC(F)c1nc2ccc(C(F)(F)F)nc2n1-c1ccc2[nH]ncc2c1 [Example 90, 2-(Difluoromethyl)-3-(1H-indazol-5-yl)-5-(trifluoromethyl)imidazo[4,5-b]pyridine]
63.1 nM	Cc1nc2ccc(C(F)(F)F)nc2n1-c1ccc2[nH]ncc2c1 [Example 98, 3-(1H-Indazol-5-yl)-2-methyl-5-(trifluoromethyl)imidazo[4,5-b]pyridine]
7.94 nM	CCc1nc2ccc(C(F)(F)F)nc2n1-c1ccc2[nH]ncc2c1 [Example 105, 2-Ethyl-3-(1H-indazol-5-yl)-5-(trifluoromethyl)imidazo[4,5-b]pyridine]
20 nM	CC(C)(C)c1nc2ccc(C(F)(F)F)nc2n1-c1ccc2[nH]ncc2c1 [Example 108, 2-tert-Butyl-3-(1H-indazol-5-yl)-5-(trifluoromethyl)imidazo[4,5-b]pyridine]
0.251 nM	CC(C)c1nc2ccc(C(F)(F)F)nc2n1-c1ccc2[nH]ncc2c1 [Example 109, 3-(1H-Indazol-5-yl)-2-isopropyl-5-(trifluoromethyl)imidazo[4,5-b]pyridine]
251 nM	FC(F)(F)Cc1nc2ccc(C(F)(F)F)nc2n1-c1ccc2[nH]ncc2c1 [Example 113, 3-(1H-Indazol-5-yl)-2-(2,2,2-trifluoroethyl)-5-(trifluoromethyl)imidazo[4,5-b]pyridine]
12.6 nM	CCOc1nc2ccc(C(F)(F)F)nc2n1-c1ccc2[nH]ncc2c1 [Example 114, 2-Ethoxy-3-(1H-indazol-5-yl)-5-(trifluoromethyl)imidazo[4,5-b]pyridine]
200 nM	OC1(c2nc3ccc(C(F)(F)F)nc3n2-c2ccc3[nH]ncc3c2)CC1 [Example 115, 1-[3-(1H-Indazol-5-yl)-5-(trifluoromethyl)imidazo[4,5-b]pyridin-2-yl]cyclopropanol]
2 nM	CC(F)(F)c1nc2ccc(C(F)(F)F)nc2n1-c1ccc2[nH]ncc2c1 [Example 116, 2-(1,1-Difluoroethyl)-3-(1H-indazol-5-yl)-5-(trifluoromethyl)imidazo[4,5-b]pyridine]
0.794 nM	FC(F)(F)c1nc2ccc(C3CC3)nc2n1-c1ccc2[nH]ncc2c1 [Example 125, 5-Cyclopropyl-3-(1H-indazol-5-yl)-2-(trifluoromethyl)imidazo[4,5-b]pyridine]
794 nM	CNC(=O)c1nc2ccc(C(F)(F)F)nc2n1-c1ccc2[nH]ncc2c1 [Example 127, 3-(1H-Indazol-5-yl)-N-methyl-5-(trifluoromethyl)imidazo[4,5-b]pyridine-2-carboxamide]
15.8 nM	COc1nc2ccc(C(F)(F)F)nc2n1-c1ccc2[nH]ncc2c1 [Example 129, 3-(1H-Indazol-5-yl)-2-methoxy-5-(trifluoromethyl)imidazo[4,5-b]pyridine]
100 nM	CCNc1nc2ccc(C(F)(F)F)nc2n1-c1ccc2[nH]ncc2c1 [Example 130, N-Ethyl-3-(1H-indazol-5-yl)-5-(trifluoromethyl)imidazo[4,5-b]pyridin-2-amine]
